Reference: PubChem BioAssay (NCI)
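Method: 48-hour compound exposure of cells in 96-well plates, five concentrations, linear interpolation of endpoints. GI50 is the concentration that inhibits growth by half. TGI: concentration producing complete growth inhibition.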

Legend:
Test in all cases: NCI tumour cell line growth inhibition, 48 h
NCI-H522 lung = tested on: NCI-H522 lung
K-562 leukemia = tested on: K-562 leukemia
SF-539 CNS = tested on: SF-539 CNS
MDA-MB-435 = tested on: MDA-MB-435
DU-145 prostate = tested on: DU-145 prostate
SK-MEL-28 melanoma = tested on: SK-MEL-28 melanoma
UACC-62 melanoma = tested on: UACC-62 melanoma
MOLT-4 leukemia = tested on: MOLT-4 leukemia
SK-MEL-2 melanoma = tested on: SK-MEL-2 melanoma
BT-549 breast = tested on: BT-549 breast

SMILES	TGI (NCI-H522 lung) [µM]	TGI (K-562 leukemia) [µM]	TGI (SF-539 CNS) [µM]	TGI (MDA-MB-435) [µM]	TGI (DU-145 prostate) [µM]	TGI (SK-MEL-28 melanoma) [µM]	TGI (UACC-62 melanoma) [µM]	TGI (MOLT-4 leukemia) [µM]	TGI (SK-MEL-2 melanoma) [µM]	TGI (BT-549 breast) [µM]	GI50 (NCI-H522 lung) [µM]	GI50 (K-562 leukemia) [µM]	GI50 (SF-539 CNS) [µM]	GI50 (MDA-MB-435) [µM]	GI50 (DU-145 prostate) [µM]	GI50 (SK-MEL-28 melanoma) [µM]	GI50 (UACC-62 melanoma) [µM]	GI50 (MOLT-4 leukemia) [µM]	GI50 (SK-MEL-2 melanoma) [µM]	GI50 (BT-549 breast) [µM]
COc1cc(/C=C2\CCC(CN(C)C)C2=O)ccc1OC(=O)c1ccccc1 (stereo not drawn)	10.4	9.04	30.4	27.3	29.8	29.2	30.9	7.03	32.7	30										
N#CC1=C(N)NC(=O)NC12Nc1ccccc1S2 (stereo not drawn)	> 71.4	> 93	> 54.9	> 88.4	35.3	> 70.3	36.4	> 100	> 64.2	93.6	28.2	31.8	20.8	31.7	12.5	26.7	14.7	> 48.3	> 44.4	24.2
Cn1cc(-c2cnc3ccc4ccc(CS(=O)(=O)NCc5ccccn5)cc4c(=O)c3c2)cn1	> 95.9	> 100	41.2	27.5	> 100	35.4	39.4	52.5	53.4	42.6	22	4.78	16.9	3.33	33.7	15	12.5	9.09	11.8	12.4
O=C(Cc1cccc(OC(F)(F)F)c1)Nc1ccc(CCCCc2nnc(NC(=O)Cc3ccccn3)s2)nn1	40.1	> 100	50.3	> 100	> 100	> 100	> 100	> 100	47.5	> 100	12.2	16.9	15.7	30.4	25.8	93.1	19.9	5.49	19	27.9
C=CC(=O)N[C@H]1CCOC[C@H]1Nc1ncc2cc(-c3c(Cl)c(OC)cc(OC)c3Cl)ccc2n1	> 100	> 100	29.9	65.8	> 100	80.2	30.6	> 100	31.7	15.8	30.9	13.9	12.5	15.3	24.4	18.3	10.7	6.43	11.9	2.86
COc1cccc2c1C(=O)c1c(O)c3c(c(O)c1C2=O)C[C@@](O)(C(=O)CO)C[C@@H]3OC1C[C@H](N)[C@H](O)[C@H](C)O1 (stereo partly drawn)	0.317	3.18	0.528	0.574		0.198	0.117	0.105	5.47	0.241	0.0334	0.089	0.0387	0.109	0.0684	0.0797	0.0346		0.141	0.059
Cc1ccc(SC2=CC(=O)c3nc4ccccc4c4ccnc2c34)cc1	38.4	> 100	83	31.2	> 67.4	> 100	> 100	> 100	58.2	> 100	16.3	35.5	33.9	16.3	43	> 100	43.3	42.8	21.2	> 62.9
NC1=NC(c2ccc(Cl)cc2)C2=C(N1)/C(=C/c1ccc(Cl)cc1)CCC2 (stereo not drawn)	36.9	> 87.8	> 78	12	29.6	45.4	34.8	57	> 70.2	10.7	15.7	6.92	19.9	2.87	7.91	17	13.3	9.47	37.7	2.74
O=C(Nc1ccc(Cl)cc1)c1cc(-c2ccc(Cl)cc2)c2sc(=O)[nH]c2n1	3.12	> 100	11.6	11.2	26.5	17.8	4.91	11.8	3.99	6.88	0.408	1.27	2.43	2.7	3.31	1.57	1.04	2.52	1.18	2.08
C=CCC(N[C@H](CO)c1ccccc1)c1cn(C(=O)OCC)c2ccccc12 (stereo partly drawn)	32.1	33.2	35.1	33.4	37.3	66.1	30.6	41.6	42	39	15.2	8.51	18.6	18	19.3	28.4	16.4	17.8	18.4	19.8
c1cn2cc(-c3ccc4cn[nH]c4c3)nc(Nc3ccc(N4CCOCC4)cc3)c2n1	39	> 100	23.1	> 100	23.5	40.5	37.8	> 100	> 100	48.1	12.3	> 100	6.54	12.8	11.4	13	11.8	96.9	36.1	14.5
N#CCc1ncc(-c2ccc(C(F)(F)F)cc2)c(NC2CCCCCC2)n1	> 10	> 10	> 10	> 10	> 10	> 10	> 10	> 10	> 10	> 10	> 10	> 10	> 10	> 10	> 10	> 10	> 10	> 10	> 10	> 10
CN(C)C(=O)c1cc2cnc(Nc3ccc(-c4csc5c(=O)cc(N6CCOCC6)oc45)cc3)nc2n1C1CCCC1	1.3	> 100	0.417	1.89	1.32	0.869	0.367	3.26	0.679	0.686	0.247	0.285	0.154	0.196	0.265	0.207	0.129	0.23	0.236	0.166
